In patent US11253497B2, “Use of derivatives of polyunsaturated fatty acids as medicaments” (Lipopharma Therapeutics, S.L., priority 2009, dated 2022):

Legend:
Jurkat cells = assay: Human leukaemia (Jurkat cells); format: cell-based; conditions: 72 hours
Protocol: (§1) Overall, it may be seen that the series of compounds A and B are the best, so the effectiveness of these series against the development of leukaemia and liver cancer (Tables 9 and 10) was tested.

TNF-α = assay: Production of TNF-α in serum of LPS-injected C57BL6/J mice; format: in vivo; conditions: LPS 20 μg i.p. (100%), 200 mg/kg p.o.
Source text: (§2) Cyclooxygenase (COX) is an enzyme that can bind to membranes, taking certain lipids from there and catalyze its conversion into molecules that can have inflammatory activity. The binding of this enzyme to membrane lipids is due in part to the membrane lipid structure. The increased activity of COX 1 and 2 isoforms has been associated with the etiopathology of a number of inflammatory diseases by […] arachidonic acid metabolism to produce pro-inflammatory lipid mediators. The D-PUFA compounds of the present invention produced a series of cellular signals that alter the metabolism of arachidonic acid and, as a result, they inhibit the activity and expression of COX in monocytes in culture (Table 14 and FIG. 5A). […] For this purpose, C57BL6/J mice were treated with the various derivatives (200 mg/kg, p.o.,) after inducing an inflammatory reaction in them by intraperitoneal injection of 20 μg of bacterial lipopolysaccharide (LPS).

P19 cells = assay: NMDA-induced neuronal death in P19 cells; format: cell-based; conditions: NMDA alone 100% death, control without NMDA 0%; negative values = proliferation
[1] = test system: brain cancer cell (glioma) U118; assay: Brain cancer (glioma) U118 cell growth; format: cell-based; conditions: 72 hours of incubation
Outline: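 Human cells in RPMI 1640 with 10% FBS at 37 °C, 5% CO2, exposed to D-PUFAs or PUFAs, then counted. glioma U118 cells run under the same conditions; values are means of three independent experiments.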

[2] = test system: heterotrimeric Gi1 protein; assay: Binding of heterotrimeric Gi1 protein to model membranes (centrifugation, immunoblotting); conditions: phosphatidylcholine:phosphatidylethanolamine (6:4) 2 mM phospholipid, 0.1 μM D-PUFA; control 100 ± 5; in % (unit assumed)
Source text: The net result is a regulation of cell signalling leading to the reversal of various pathological processes, as shown later. […] The Control is a sample of model membranes in the absence of fatty acids.

[3] = Lamellar-to-hexagonal (HII) transition temperature in DEPE model membranes by Differential Scanning Calorimetry; format: physicochemical; conditions: for Transition temperature (lamellar to HII): DEPE (4 mM), 200 μM compound, series A, control 64.5; for Temperature of lamellar-to-hexagonal transition: DEPE membranes, DEPE:D-PUFA 10:1 (mol:mol)
Protocol: The transition temperature was determined by Differential Scanning Calorimetry. The proportion DEPE:D-PUFA was 10:1 (mol:mol) in all cases. Lamellar-to-hexagonal transition is an important parameter that reflects relevant signalling properties of cell membranes. […] When this occurs, certain peripheral membrane proteins (such as G proteins, protein kinase C or Ras protein) can more easily bind to the membrane, while others have a poor interaction (e.g., the Gα-protein), so changes in the HII transition temperature are important in regulating cellular functions related to health and human therapy (Escriba et al., 1995, Vogler et al., 2004; Escriba, 2006).
Control values correspond to model membranes in the absence of fatty acids. The reduction in HII transition temperature obtained by using the D-PUFA of the invention indicates an increased induction of membrane discontinuities, generating anchoring sites in the membrane for peripheral proteins and leads to better regulation of cell signalling and, therefore, greater effectiveness in the control of certain diseases.

[4] = test system: apolipoprotein AI (apoA-I); assay: Levels of apoA-I in SHR rats (RT-PCR); format: in vivo, rat; conditions: 200 mg/kg day p.o., 30 days, before treatment 100%
Outline: (§3)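 SHR rats dosed orally at 200 mg/kg day for 30 days against water vehicle. At study end, blood pressure taken non-invasively by tail cuff and apoA-I assessed as gene expression by RT-PCR.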

3T3 cells = assay: Percentage of total PUFAs in membranes of 3T3 cells treated with fatty acids (gas chromatography); format: cell-based; conditions: 100 μM, 48 hours, mean ± SEM of four measures, control 32.4 ± 2.1
Source text: To perform these experiments, membranes were extracted and total fatty acids were obtained by hydrolysis in basic medium. Methanolic bases of these fatty acids were quantified by gas chromatography. The data shown are averages of four independent measures of PUFA's mass divided by the total fatty acids and expressed as a percentage. It is also shown is standard error of the mean.
The control corresponds to a culture without the presence of added natural or synthetic fatty acids. Cells in their natural form present PUFAs in their membranes, but the presence in the medium of the D-PUFA molecules of the invention increases these levels of PUFAs in the cell membrane.

COX-2 = assay: Expression of COX-2 in LPS-stimulated monocytes in culture; format: cell-based, human; conditions: positive control with LPS 100%
Source text: FIG. 5A also presents a drawing showing the COX-2/COX-1 relationship as % of control (Y axis) for the following compounds (X-axis): OOA (2-hydroxy-oleic acid), OLA (182A1), OALA (183A1), OGLA (183A2), OARA (204A1), OEPA (205A1), ODHA (226A1). […] The reduction of this factor is directly related to the anti-inflammatory medication. The compounds are the same as in the left pane.
as §2
Inhibition of COX-2 expression in monocytes. Percentages of inhibition (compared to the positive control in the presence of LPS, 100%) of COX-2 protein levels (expression) by the various fatty acid derivatives.

HepG2 cells = assay: Liver cancer (HepG2 cells); format: cell-based; conditions: Homo sapiens, HepG2; 72 hours
Protocol: These charts show the antitumor efficacy of the compounds of this invention against the growth of breast cancer cells, brain (glioma), and lung cancer. […] The other experimental conditions are identical to those described in the preceding paragraph.
as §1

α-synuclein = assay: Expression of α-synuclein in neuronal cultures (cells P19); format: cell-based; conditions: untreated cells 100%
lung cancer cells A549 = assay: Growth of lung cancer cells A549 (IC50); format: cell-based, human; conditions: 72 hours of incubation
Outline: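 Human A549 lung cancer cells in RPMI 1640 with 10% FBS at 37 °C, 5% CO2, exposed to D-PUFAs or PUFAs, then counted. values are means of three independent experiments.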

[5] = test system: breast cancer cells MDA-MB-231; assay: Growth of breast cancer cells MDA-MB-231; format: cell-based; conditions: 72 hours of incubation
Outline: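 Human cancer cells in RPMI 1640 with 10% FBS at 37 °C, 5% CO2, exposed to D-PUFAs or PUFAs, then counted. Breast MDA-MB-231 cells run under the same conditions; values are means of three independent experiments.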

[6] = Serum cholesterol, triglycerides and glucose in SHR rats (colorimetric); format: in vivo, rat; conditions: 200 mg/kg daily p.o., 28 days, untreated rats 100%
Protocol: In a separate experimental series, SHR rats were treated with various compounds of the present invention (200 mg/kg daily, 28 days, p.o.) and the levels of cholesterol, triglycerides and glucose in serum were measured by colorimetric methods. It was observed that these compounds induce significant (and in many cases marked) reductions in the levels of these metabolites (Table 16).
Values are expressed as percent, and in untreated (control) rats values were always considered as 100%.

[7] = test system: Spontaneously Hypertensive Rats (SHR); assay: Blood pressure of SHR rats (cuff-tail method); format: in vivo, rat; conditions: 200 mg/kg day p.o., 30 days, before treatment 214 mmHg
Outline: as §3

Row | Structure (SMILES) | IC50 (Jurkat cells; Homo sapiens, Jurkat) [µM] | Production of TNF-α in serum (TNF-α) [%] | Neuronal death (P19 cells) after treatment with NMDA (P19 cells) [%] | IC50 [1] [µM] | G protein binding [2] | Transition temperature (lamellar to HII) [3] [°C] | Levels of apoA-I [4] [%] | Percentage of total PUFA (3T3 cells) [%] | COX-2 protein levels (expression), percentages of inhibition compared to positive control (COX-2) [%] | IC50 (HepG2 cells) [µM] | Expression of α-synuclein (α-synuclein) [%] | IC50 (lung cancer cells A549; Homo sapiens, A549) [µM] | IC50 ([5]; Homo sapiens, MDA-MB-231) [µM] | Cholesterol in serum (top number) [6] [%] | Glucose in serum (bottom number) [6] [%] | Triglycerides in serum (central number) [6] [%] | Blood pressure [7] [mm Hg] | IC50 (Jurkat cells) [µM] | IC50 (lung cancer cells A549) [µM] | IC50 [5] [µM] | also measured
1 | CCCCCC=CCC=CCCCCCCC(O)C(=O)O (stereo not drawn) [182A1, 2-hydroxy-9,12-octadecadienoic acid] | 713 | 64 | −60 | 197 | 312 ± 12 | 51.8 | 146 | 42.3 ± 3.1 | 24 | 212 | 50 | 944 | 388 | 78 | 84 | 91 | 204 |  |  |  | 
2 | CCCCCC=CCC=CCCCCCCC(O)C(=O)[O-].[Na+] (stereo not drawn) [182B1] |  | 79 | −62 | 198 |  |  | 178 |  | 39 |  | 61 |  |  | 89 | 87 | 72 | 201 | 377 | 196 | 379 | Temperature of lamellar-to-hexagonal transition [3]: 52.1 °C
3 | CCC=CCC=CCC=CCCCCCCC(O)C(=O)O (stereo not drawn) [183A1, 2-hydroxy-9,12,15-octadecatrienoic acid] | 198 | 70 | −55 | 397 | 328 ± 9 | 51.6 | 134 | 42.8 ± 2.2 | 20 | 380 | 45 | 200 | 380 | 76 | 87 | 81 | 201 |  |  |  | 
4 | CCCCCC=CCC=CCC=CCCCC(O)C(=O)O (stereo not drawn) [183A2, 2-hydroxy-6,9,12-octadecatrienoic acid] | 184 | 71 | −70 | 372 | 17 ± 357 | 50.1 | 311 | 44.0 ± 2.6 | 23 | 380 | 40 | 192 | 347 | 79 | 82 | 78 | 189 |  |  |  | 
5 | CCCCCC=CCC=CCC=CCCCC(O)C(=O)[O-].[Na+] (stereo not drawn) [183B2] |  | 78 | −66 | 377 |  |  | 285 |  | 29 |  | 38 |  |  | 77 | 86 | 76 | 182 | 184 | 197 | 156 | Temperature of lamellar-to-hexagonal transition [3]: 51 °C
6 | CCCCCC=CCC=CCC=CCC=CCCC(O)C(=O)[O-].[Na+] (stereo not drawn) [204B1] |  | 26 | −71 | 396 |  |  | 144 |  | 28 |  | 36 |  |  | 71 | 89 | 69 | 202 | 104 | 413 | 345 | Temperature of lamellar-to-hexagonal transition [3]: 50.2 °C
7 | CCC=CCC=CCC=CCC=CCC=CCCC(C)C(=O)[O-].[Na+] (stereo not drawn) [205L1] |  | 76 | −35 | 435 |  |  | 376 |  | 53 |  | 67 |  |  | 79 | 85 | 78 | 198 |  | 362 | 253 | 
8 | CCC=CCC=CCC=CCC=CCC=CCCC(OC=O)C(=O)OCC (stereo not drawn) [205V1] |  | 84 | −27 | 510 |  |  | 315 |  | 76 |  | 81 |  |  | 85 | 84 | 79 | 191 |  | 325 | 298 | 
